According to patent publication US11905231B1, “Solid forms, salts and polymorphs of anti-fibrotic compounds” (Certa Therapeutics Pty Ltd, priority 2023, dated 2024):
Counter-ions that a name gives are not always drawn. Like-named read-outs stand apart in the source and are kept apart here.

Assays:
[1] = in vivo; settings: rat; for F (fraction absorbed, bioavailability): based on AUCInf
Description: Bioavailability is determined by the equation AUC=F·D/CLT, wherein AUC is the area under the plot of plasma concentration, F is the absolute bioavailability, D is the dose, and CLT is the total clearance.
The rats received a single oral dose of 20 mg/kg body weight (b.w.). The doses were prepared as a 2.0 mg/mL suspension in a vehicle of 20 mM Na2HPO4 buffer containing 5% (v/v) DMSO, 0.4% (v/v) 1M NaOH and 0.4% (v/v) Tween 80 and a dose volume of 10 mL/kg b.w.
Pharmacokinetic analysis was performed on the average plasma concentration for each time point.

[2] = Dynamic Vapor Sorption (DVS) hygroscopicity; settings: at 80% RH, 25° C., measured during 0% RH to 95% RH increase
Description: The change in water content is recited as a % change in mass of the starting sample and all such water sorption (DVS) values recited herein will be understood to explicitly include numerical values within a +/−0.2% variance.
The humidity is held constant at 30% RH until the mass change of the sample reaches equilibrium, as determined by the rate of change of weight being 0.01%/minute or less. The humidity is then changed to the next step value and the consequent mass change measured, and so on.
The hygroscopicity values recited herein refer to total water gain since the start of the experiment only and so may not necessarily be equivalent to the actual total water content of the sample.

[3] = Stability of the ethanolamine salt under accelerated and long-term storage conditions; assay type: physicochemical; settings: for API (Purity_) / Total Impurity: HPLC
Description: The samples were assayed by HPLC at the start, after 1 week, and after 2 weeks at the indicated accelerated storage conditions, or after 36 days at room temperature storage. For HPLC analysis, the samples were diluted with 10 mL of TFA/DMSO/ACN (0.1/10/90, v/v/v) to ˜1 mg/mL and analyzed by HPLC.
The samples were also analyzed by XRPD at initial, 1 week, 2 weeks and 36 day time points.

[4] = physchem; settings: 37 °C, thermodynamic from solid; for solubility at 1 h: 1 h Solubility; for solubility at 24 h: 24 h Solubility
Description: The term “FaSSIF media” refers to Fasted State Simulated Intestinal Fluid media prepared using FaSSIF powder and buffer concentrate obtained from the commercial source Biorelevant (London, UK, biorelevant.com). The FaSSIF powder contains sodium taurocholate, lecithin, sodium chloride, monobasic sodium phosphate and sodium hydroxide. The FaSSIF media is prepared as described at https://biorelevant.com/learning_center/what-is-fassif/. Briefly the pH6.5 buffer containing 0.42 g of NaOH, 3.95 g of NaH2PO4·H2O and 6.19 g of NaCl was dissolved in 0.9 L of purified water and the pH of the solution was adjusted to 6.5 using sodium hydroxide 1N or hydrochloric acid 1N and made up to volume (1 L) with purified water at room temperature. Dissolve 2.24 g of the FaSSIF powder in 0.5 L of the pH6.5 buffer, stirring until the powder is completely dissolved, and then make up to volume (1 L) with buffer at room temperature.
The samples were stirred using a magnetic stirrer at 37° C. […] The samples were filtered via centrifugation (12,000 rpm, 5 min). The supernatant was diluted (2×) with HPLC grade solvent and analyzed by HPLC.
HPLC gradient was as follows:
The pH 1.2, pH 4.5, and pH 6.8 media were prepared as standard aqueous buffered solutions following USP <39>.
As used herein, the term “FaSSIF media” means Fasted Stated Simulated Intestinal Fluid media prepared according to the method known in the art.

[5] = Thermogravimetric Analysis (TGA) weight loss; assay type: physicochemical; settings: for Total weight loss by TGA: from r.t. to 350° C. (or to decomposition if lower)
[6] = Sprague-Dawley, in vivo, po, 20 mg/kg
[7] = 40° C., 75% RH, open vial, 1 week
[8] = 40° C., 75% RH, open vial, 2 weeks
[9] = pH 1.2 aqueous buffer, pH 1.2, simulated gastric fluid, pH 1.2 medium
[10] = pH 4.5 aqueous buffer, pH 4.5 medium
[11] = single oral dose 20 mg/kg, 0.5 h post dose
[12] = single oral dose 20 mg/kg, 1 h post dose
[13] = single oral dose 20 mg/kg, 2 h post dose
[14] = single oral dose 20 mg/kg, 4 h post dose
[15] = single oral dose 20 mg/kg, 8 h post dose
[16] = single oral dose 20 mg/kg, 24 h post dose
[17] = single oral dose 20 mg/kg, plasma
[18] = single oral dose 20 mg/kg, plasma, mean
[19] = single oral dose 20 mg/kg, plasma, extrapolated area under the curve

Compound: C#CCOc1ccc(/C=C/C(=O)Nc2ccccc2C(=O)O)cc1OC [Ethanolamine salt]
- AUCExtr [1, 6]: 1.92%
- AUCInf [1, 6]: 405.006 µg·h/mL
- AUClast [1, 6]: 396.535 µg·h/mL
- tmax [1, 6]: 1.00 h
- Mean concentration (plasma) ([1]; Sprague-Dawley, in vivo, po, 20 mg/kg, 0.5 h): 37.133 µg/mL
- Mean concentration (plasma) ([1]; Sprague-Dawley, in vivo, po, 20 mg/kg, 1 h): 52.733 µg/mL
- Mean concentration (plasma) ([1]; Sprague-Dawley, in vivo, po, 20 mg/kg, 2 h): 40.3 µg/mL
- Mean concentration (plasma) ([1]; Sprague-Dawley, in vivo, po, 20 mg/kg, 4 h): 25.9 µg/mL
- Mean concentration (plasma) ([1]; Sprague-Dawley, in vivo, po, 20 mg/kg, 8 h): 18.767 µg/mL
- Mean concentration (plasma) ([1]; Sprague-Dawley, in vivo, po, 20 mg/kg, 24 h): 1.262 µg/mL
- half-life ([1]; Sprague-Dawley, in vivo, po, 20 mg/kg, t1/2): 4.32 h
- Plasma concentration at 24 h post dose compared to the other tested compounds ([1]; in vivo, po, 20 mg/kg): highest plasma concentrations
- Hygroscopicity by DVS [2]: 0.49%
- Hygroscopicity by DVS ([2]; listed as ethanolamine): 0.49%
- Hygroscopicity by DVS ([2]; listed as ethanolamine salt): about 0.49%
- Appearance [3, 7]: White
- API (Purity_) [3, 7]: 99.73%
- Total Impurity [3, 7]: 0.27%
- Appearance [3, 8]: White
- API (Purity_) [3, 8]: 99.72%
- Total Impurity [3, 8]: 0.28%
- Appearance ([3]; 60° C., open vial, 1 week): White
- API (Purity_) ([3]; 60° C., open vial, 1 week): 99.73%
- Total Impurity ([3]; 60° C., open vial, 1 week): 0.27%
- Appearance ([3]; 60° C., open vial, 2 weeks): White
- API (Purity_) ([3]; 60° C., open vial, 2 weeks): 99.71%
- Total Impurity ([3]; 60° C., open vial, 2 weeks): 0.29%
- Appearance ([3]; Initial): White
- API (Purity_) ([3]; Initial): 99.75%
- Total Impurity ([3]; Initial): 0.26%
- Changes in impurity content or crystallinity ([3]; accelerated storage (1-2 weeks) or long-term storage (room temperature, 36 days), HPLC and XRPD): no significant changes
- solubility at 1 h [4, 9]: 0.008 mg/mL
- solubility at 24 h [4, 9]: 0.003 mg/mL
- solubility at 1 h [4, 10]: 0.028 mg/mL
- solubility at 24 h [4, 10]: 0.005 mg/mL
- solubility at 24 h ([4]; pH 6.8 aqueous buffer, pH 6.8 medium): 0.088 mg/mL
- Weight loss by TGA ([5]; from 0° C. to 120° C.): 0.10% from 0 °C to
- Weight loss by TGA ([5]; from r.t. to 120° C.): 0.10% from r.t. to
- Total weight loss by TGA [5]: 0.10% total weight
- Weight loss (TGA) ([5]; when heated from about 25° C. to about 120° C. (text), listed as ethanolamine): 0.10%
- Weight loss (TGA) ([5]; when heated from about 25° C. to about 120° C. (text), listed as ethanolamine salt): about 0.1%
- 1 h Solubility (FaSSIF (pH 7.5), 37° C., 1 h): >7.99 mg/mL
- 24 h Solubility (FaSSIF (pH 7.5), 37° C., 24 h): >7.99 mg/mL
- 1 h Solubility (FaSSIF, 37° C., 1 h): 0.238 mg/mL
- 24 h Solubility (FaSSIF, 37° C., 24 h): 0.263 mg/mL
- 1 h Solubility (FeSSIF (pH 7.8), 37° C., 1 h): >8.02 mg/mL
- 24 h Solubility (FeSSIF (pH 7.8), 37° C., 24 h): >8.02 mg/mL
- 1 h Solubility (FeSSIF, 37° C., 1 h): 0.012 mg/mL
- 24 h Solubility (FeSSIF, 37° C., 24 h): 0.025 mg/mL
- 1 h Solubility (pH 6.8 medium, 37° C., 1 h): 0.116 mg/mL

Compound: C#CCOc1ccc(/C=C/C(=O)Nc2ccccc2C(=O)[O-])cc1OC.[K+] [Potassium salt]
- Mean concentration (plasma) [1, 11]: 24.6 µg/mL
- Mean concentration (plasma) [1, 12]: 34.467 µg/mL
- Mean concentration (plasma) [1, 13]: 27.2 µg/mL
- Mean concentration (plasma) [1, 14]: 17 µg/mL
- Mean concentration (plasma) [1, 15]: 10.85 µg/mL
- Mean concentration (plasma) [1, 16]: 0.687 µg/mL
- AUCExtr [1, 17]: 1.68%
- AUClast [1, 18]: 244.45 µg·h/mL
- Cmax [1, 18]: 34.733 µg/mL
- t1/2 [1, 18]: 4.21 h
- tmax [1, 18]: 1.33 h
- AUCInf [1, 19]: 248.674 µg·h/mL
- F (fraction absorbed, bioavailability) ([1]; single oral dose 20 mg/kg): 51%
- Hygroscopicity by DVS [2]: 6.05%
- Weight loss by TGA ([5]; from 25° C. to 57° C.): 2.02% from 25 °C to
- Weight loss by TGA ([5]; from 57° C. to 140° C.): 4.40% from 57 °C to
- Weight loss by TGA ([5]; from r.t. to 120° C.): 5.34% from r.t. to
- Total weight loss by TGA [5]: 6.42% total weight
- 1 h Solubility (FaSSIF (pH 7.5), 37° C., 1 h): >5.14 mg/mL
- 24 h Solubility (FaSSIF (pH 7.5), 37° C., 24 h): >5.14 mg/mL
- 1 h Solubility (FaSSIF, 37° C., 1 h): 0.218 mg/mL
- 24 h Solubility (FaSSIF, 37° C., 24 h): 0.211 mg/mL
- 1 h Solubility (FeSSIF (pH 7.8), 37° C., 1 h): >5.14 mg/mL
- 24 h Solubility (FeSSIF (pH 7.8), 37° C., 24 h): >5.14 mg/mL
- 1 h Solubility (FeSSIF, 37° C., 1 h): 0.023 mg/mL
- 24 h Solubility (FeSSIF, 37° C., 24 h): 0.025 mg/mL
- 1 h Solubility (pH 1.2 medium, 37° C., 1 h): 0.018 mg/mL
- 24 h Solubility (pH 1.2 medium, 37° C., 24 h): 0.007 mg/mL
- 1 h Solubility (pH 4.5 medium, 37° C., 1 h): 0.030 mg/mL
- 24 h Solubility (pH 4.5 medium, 37° C., 24 h): 0.006 mg/mL
- 1 h Solubility (pH 6.8 medium, 37° C., 1 h): 0.111 mg/mL
- 24 h Solubility (pH 6.8 medium, 37° C., 24 h): 0.078 mg/mL

Compound: C#CCOc1ccc(/C=C/C(=O)Nc2ccccc2C(=O)O)cc1OC.NC(CO)(CO)CO [Tris salt]
- Mean concentration (plasma) [1, 11]: 21.3 µg/mL
- Mean concentration (plasma) [1, 12]: 36.833 µg/mL
- Mean concentration (plasma) [1, 13]: 31.067 µg/mL
- Mean concentration (plasma) [1, 14]: 14.467 µg/mL
- Mean concentration (plasma) [1, 15]: 11.317 µg/mL
- Mean concentration (plasma) [1, 16]: 0.65 µg/mL
- AUCExtr [1, 17]: 1.49%
- AUClast [1, 18]: 246.642 µg·h/mL
- Cmax [1, 18]: 37.367 µg/mL
- t1/2 [1, 18]: 4.02 h
- tmax [1, 18]: 1.33 h
- AUCInf [1, 19]: 250.596 µg·h/mL
- F (fraction absorbed, bioavailability) ([1]; single oral dose 20 mg/kg): 51%
- Hygroscopicity by DVS [2]: 1.61%
- Hygroscopicity by DVS ([2]; listed as tris(hydroxymethyl)aminomethane (Tris)): 1.61%
- Weight loss by TGA ([5]; from 0° C. to 120° C.): 0.65% from 0 °C to
- Weight loss by TGA ([5]; from 120° C. to 150° C.): 0.20% from 120 °C to
- Weight loss by TGA ([5]; from r.t. to 120° C.): 0.65% from r.t. to
- Total weight loss by TGA [5]: 0.85% total weight
- Weight loss (TGA) ([5]; when heated from about 25° C. to about 120° C.): 0.65%
- 1 h Solubility (pH 1.2): 0.001 mg/mL
- 24 h Solubility (pH 1.2): 0.004 mg/mL
- 1 h Solubility (pH 4.5): <0.001 mg/mL
- 24 h Solubility (pH 4.5): 0.002 mg/mL
- 1 h Solubility (pH 6.8): 0.088 mg/mL
- 24 h Solubility (pH 6.8): 0.067 mg/mL
- 1 h Solubility (pH 7.5): >5.03 mg/mL
- 24 h Solubility (pH 7.5): 4.641 mg/mL
- 1 h Solubility (pH 7.8): >5.10 mg/mL
- 24 h Solubility (pH 7.8): 4.212 mg/mL
